Data taken from patent US11261201B2 (priority 2018, dated 2022).
Values after ≈ are worked out from the molar mass of the structure shown. Structures can show the parent of a compound that is named as a salt. Where two headings read alike, the source gives them in different places.

Legend:
H37RvMA = assay: Tuberculosis Alamar Blue/Resazurin assay (MIC); assay type: cell-based; conditions: Mycobacterium tuberculosis, H37RV, read-out: WT H37Rv MTB Activity
A. baumannii = assay: Gram negative MIC protocol (OD600, LB, 24 h); conditions: Acinetobacter baumannii
Procedure: (§1) Overnight bacterial cultures were grown in LB with no added antibiotics at 37° C. with shaking. A 1:1000 dilution of these cultures into LB was exposed to concentration gradients of compounds in 96-well plates (100 μL per well assay volume). Resulting plates were incubated at 37° C. for 24 h without shaking, and OD600 was measured at the end of the incubation. MICs were determined as the lowest concentrations at which OD600 remained at baseline.

E. coli = assay: Gram negative MIC protocol (OD600, LB, 24 h); conditions: Escherichia coli
Procedure: as §1

[1] = read-out: MIC A. baumannii LB Media, A. baumannii, LB media, 24 h, OD600
[2] = read-out: MIC E. coli delta-TolC LB Media, E. coli delta-TolC, LB media, OD600
[3] = read-out: MIC WT E. coli LB Media, WT E. coli, LB media, OD600
[4] = read-out: MIC A. baumannii LB Media

Row | SMILES | MIC (H37RvMA; WT H37Rv MTB) | MIC (A. baumannii; [1]) | MIC (E. coli; read-out: MIC E. coli delta-TolC LB Media, E. coli delta-TolC strain, LB media, 24 h, OD600) | MIC (E. coli; read-out: MIC WT E. coli LB Media, wild-type E. coli, LB media, 24 h, OD600) | MIC (E. coli; [2]) | MIC (E. coli; [3]) | MIC (H37RvMA) | MIC (A. baumannii; [4])
1 | CC(CC1CCCCC1)NCc1ccccc1NCc1ccccc1F (stereo not drawn) [B397, 2-(((1-cyclohexylpropan-2-yl)amino)methyl)-N-(2-fluorobenzyl)aniline dihydrochloride] | 12.2 µM | > 150 µM | 5 µM | > 150 µM |  |  |  | 
2 | CC(CC1CCCCC1)NCc1ccccc1NC(=O)c1ccccc1F (stereo not drawn) [B398, N-(2-(((1-cyclohexylpropan-2-yl)amino)methyl)phenyl)-2-fluorobenzamide hydrochloride] | 150 µM | > 150 µM |  |  | 91 µM | > 150 µM |  | 
3 | CC(CC1CCCCC1)NCc1ccccc1CCC(N)=O (stereo not drawn) [B399, 3-(2-((1-cyclohexylpropan-2-ylamino)methyl)phenyl)propanamide trifluoroacetate] |  |  |  |  | 20 µM | 150 µM | > 150 µM | > 150 µM
4 | COC(=O)CCc1ccccc1CNC(C)CC1CCCCC1 (stereo not drawn) [B400, methyl 3-(2-((1-cyclohexylpropan-2-ylamino)methyl)phenyl)propanoate hydrochloride] | > 150 µM | > 150 µM |  |  | 55 µM | > 150 µM |  | 
5 | CC(CC1CCCCC1)NCc1ccccc1CCC(=O)O (stereo not drawn) [B401, 3-(2-((1-cyclohexylpropan-2-ylamino)methyl)phenyl)propanoic acid trifluoroacetate] |  |  |  |  | 33 µM | > 150 µM | > 150 µM | > 150 µM
6 | O=C1NCC(COc2ccccc2CNCCC2=CCCCC2)O1 (stereo not drawn) [B402] | > 150 µM | > 150 µM |  |  | 33 µM (≈ 10.9 µg/mL) | 150 µM (≈ 49.6 µg/mL) |  | 
7 | CC(CC1CCCCC1)NCc1ccccc1OCC1CNC(=O)C1 (stereo not drawn) [B403] | > 150 µM | > 150 µM |  |  | 7 µM (≈ 2.41 µg/mL) | > 150 µM |  | 
8 | CC(CC1CCCCC1)NCc1ccccc1OC1C2CC3CC(C2)CC1C3 [B404, N-(2-(((1R,3S,5r,7r)-adamantan-2-yl)oxy)benzyl)-1-cyclohexylpropan-2-amine] | 20.2 µM (≈ 7.71 µg/mL) | 150 µM (≈ 57.2 µg/mL) |  |  | 7 µM (≈ 2.67 µg/mL) | > 150 µM |  | 
9 | CC(CC1CCCCC1)NCc1ccccc1Oc1ccccc1F (stereo not drawn) [B405, 1-cyclohexyl-N-(2-(2-fluorophenoxy)benzyl)propan-2-amine] | 33.4 µM (≈ 11.4 µg/mL) | 150 µM (≈ 51.2 µg/mL) |  |  | 5 µM (≈ 1.71 µg/mL) | 91 µM (≈ 31.1 µg/mL) |  | 
10 | CNc1cccc(CNCCC2CCCCC2)c1 [B406, 3-(((2-cyclohexylethyl)amino)methyl)-N-methylaniline] | 150 µM (≈ 37 µg/mL) | > 150 µM |  |  | > 150 µM | > 150 µM |  | 
11 | CC(CC1CCCCC1)NCc1ccccc1SCC1CN(C)C(=O)O1 (stereo not drawn) [B407, 5-(((2-(((1-cyclohexylpropan-2-yl)amino)methyl)phenyl)thio)methyl)-3-methyl oxazolidin-2-one] | > 150 µM | > 150 µM |  |  | 7 µM (≈ 2.64 µg/mL) | 150 µM (≈ 56.5 µg/mL) |  | 
12 | CC(CC1CCCCC1)NCc1ccccc1OCc1ccc(F)cc1 (stereo not drawn) [B408, 1-cyclohexyl-N-(2-((4-fluorobenzyl)oxy)benzyl)propan-2-amine] | 12.2 µM (≈ 4.34 µg/mL) | 55 µM (≈ 19.6 µg/mL) |  |  | 2 µM (≈ 0.711 µg/mL) | 55 µM (≈ 19.6 µg/mL) |  | 
13 | CC(CC1CCCCC1)NCc1ccccc1OCc1ccccc1 (stereo not drawn) [B409, N-(2-(benzyloxy)benzyl)-1-cyclohexylpropan-2-amine] | 12.2 µM (≈ 4.12 µg/mL) | 55 µM (≈ 18.6 µg/mL) |  |  | 3 µM (≈ 1.01 µg/mL) | 55 µM (≈ 18.6 µg/mL) |  | 
14 | O=C1Cc2ccccc2CN1CCC1CCSCC1 [B410, 2-(2-(tetrahydro-2H-thiopyran-4-yl)ethyl)-1,4-dihydroisoquinolin-3(2H)-one] | > 150 µM | > 150 µM |  |  | > 150 µM | > 150 µM |  | 
15 | O=C1Cc2ccccc2CN1CCC1=CCCCC1 [B411, 2-(2-(cyclohex-1-en-1-yl)ethyl)-1,4-dihydroisoquinolin-3(2H)-one] | 7.4 µM (≈ 1.89 µg/mL) | > 150 µM |  |  | 150 µM (≈ 38.3 µg/mL) | > 150 µM |  | 
16 | CC(CC1CCCCC1)N1Cc2ccccc2CC1=O (stereo not drawn) [B412, 2-(1-cyclohexylpropan-2-yl)-1,4-dihydroisoquinolin-3(2H)-one] | 7.4 µM (≈ 2.01 µg/mL) | > 150 µM |  |  | 55 µM (≈ 14.9 µg/mL) | > 150 µM |  | 
17 | CC(CN1Cc2ccccc2CC1=O)C1CCCCC1 (stereo not drawn) [B413, 2-(2-cyclohexylpropyl)-1,4-dihydroisoquinolin-3(2H)-one] | 7.4 µM (≈ 2.01 µg/mL) | > 150 µM |  |  | 55 µM (≈ 14.9 µg/mL) | > 150 µM |  | 
18 | CC(CC1CCCCC1)NCc1ccccc1CS(N)(=O)=O (stereo not drawn) [B414, (2-(((1-cyclohexylpropan-2-yl)amino)methyl)phenyl)methanesulfonamide] | > 150 µM | 150 µM (≈ 48.7 µg/mL) |  |  | 4 µM (≈ 1.3 µg/mL) | 20 µM (≈ 6.49 µg/mL) |  | 
19 | CC1CCCCC1CCN1Cc2ccccc2CC1=O (stereo not drawn) [B415, 2-(2-(2-methylcyclohexyl)ethyl)-1,4-dihydroisoquinolin-3(2H)-one] | 1.26 µM (≈ 0.341 µg/mL) | > 150 µM |  |  | 55 µM (≈ 14.9 µg/mL) | > 150 µM |  | 
20 | O=C1Cc2ccccc2CN1CCCC1CCCCC1 [B416, 2-(3-cyclohexylpropyl)-1,4-dihydroisoquinolin-3(2H)-one] | 2.5 µM (≈ 0.679 µg/mL) | > 150 µM |  |  | 55 µM (≈ 14.9 µg/mL) | > 150 µM |  | 
21 | c1ccc2c(c1)CCN(CCC1CCCCC1)C2 [B417, 2-(2-cyclohexylethyl)-1,2,3,4-tetrahydroisoquinoline] |  |  |  |  | > 150 µM | > 150 µM | > 150 µM | > 150 µM
22 | O=C1Cc2ccccc2CN1C1CCCCC1 [B418, 2-cyclohexyl-1,4-dihydroisoquinolin-3(2H)-one] | > 150 µM | > 150 µM |  |  | > 150 µM | > 150 µM |  | 
23 | O=C1c2ccccc2CN1CCC1CCCCC1 [B419, 2-(2-cyclohexylethyl)isoindolin-1-one] | 0.6 µM (≈ 0.146 µg/mL) | > 150 µM |  |  | 150 µM (≈ 36.5 µg/mL) | > 150 µM |  | 
24 | CNCc1cccc(CNCCC2CCCCC2)c1 [B420, 2-cyclohexyl-N-(3-((methylamino)methyl)benzyl)ethan-1-amine] | > 150 µM | > 150 µM |  |  | > 150 µM | > 150 µM |  | 
25 | O=C1Cc2ccccc2CN1CCc1ccccc1 [B421, 2-phenethyl-1,4-dihydroisoquinolin-3(2H)-one] | 55.1 µM (≈ 13.8 µg/mL) | > 150 µM |  |  | > 150 µM | > 150 µM |  | 
26 | O=C1Cc2ccccc2CN1CCC1CCCCCC1 [B422, 2-(2-cycloheptylethyl)-1,4-dihydroisoquinolin-3(2H)-one] | 2.5 µM (≈ 0.679 µg/mL) | > 150 µM |  |  | 150 µM (≈ 40.7 µg/mL) | > 150 µM |  | 
27 | CC(CC1CCCCC1)NCc1cccc2ccn(Cc3ccccc3)c12 (stereo not drawn) [B423, N-((1-benzyl-1H-indol-7-yl)methyl)-1-cyclohexylpropan-2-amine] | 150 µM (≈ 54.1 µg/mL) | > 150 µM |  |  | 55 µM (≈ 19.8 µg/mL) | > 150 µM |  | 
28 | CC(CC1CCCCC1)NCc1ccccc1CS(C)(=O)=O (stereo not drawn) [B424, 1-cyclohexyl-N-(2-((methylsulfonyl)methyl)benzyl)propan-2-amine] | > 150 µM | 150 µM (≈ 48.5 µg/mL) |  |  | 3 µM (≈ 0.971 µg/mL) | 33 µM (≈ 10.7 µg/mL) |  | 
29 | O=C1CCc2ccccc2CN1CCC1CCCCC1 [B425, 2-(2-cyclohexylethyl)-1,2,4,5-tetrahydro-3H-benzo[c]azepin-3-one] | > 150 µM | > 150 µM |  |  | 33 µM (≈ 8.96 µg/mL) | > 150 µM |  | 
30 | CC(CC1CCCCC1)N1Cc2ccccc2OC1=O (stereo not drawn) [B426, 3-(1-cyclohexylpropan-2-yl)-3,4-dihydro-2H-benzo[e][1,3]oxazin-2-one] | 1.7 µM (≈ 0.465 µg/mL) | > 150 µM |  |  | 55 µM (≈ 15 µg/mL) | > 150 µM |  | 
